Source: PubChem BioAssay (NCI)
Where “and” joins values, the source holds several entries; their conditions need not be identical. Equal values may be shown once.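 Following 48 hours of exposure in 96-well plates, responses at five concentrations were used to interpolate endpoints linearly. At the GI50, growth is halved. The concentration for full growth arrest is given as TGI.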

Legend:
Assay in all cases: growth of human tumour cells (NCI), 48 h
A498 renal = system: A498 renal
DU-145 prostate = system: DU-145 prostate
EKVX NSCLC = system: EKVX NSCLC
HCT-15 colon = system: HCT-15 colon
HL-60(TB) leukemia = system: HL-60(TB) leukemia
SF-268 CNS = system: SF-268 CNS
SF-539 CNS = system: SF-539 CNS
SK-MEL-2 melanoma = system: SK-MEL-2 melanoma
TK-10 renal = system: TK-10 renal
UACC-257 melanoma = system: UACC-257 melanoma

Structure (SMILES)	GI50 (A498 renal)	TGI (A498 renal)	GI50 (DU-145 prostate)	TGI (DU-145 prostate)	GI50 (EKVX NSCLC)	TGI (EKVX NSCLC)	GI50 (HCT-15 colon)	TGI (HCT-15 colon)	GI50 (HL-60(TB) leukemia)	TGI (HL-60(TB) leukemia)	GI50 (SF-268 CNS)	TGI (SF-268 CNS)	GI50 (SF-539 CNS)	TGI (SF-539 CNS)	GI50 (SK-MEL-2 melanoma)	TGI (SK-MEL-2 melanoma)	GI50 (TK-10 renal)	TGI (TK-10 renal)	GI50 (UACC-257 melanoma)	TGI (UACC-257 melanoma)
COC(=O)c1c2c(c(C)[n+]([O-])c1C)C(=O)C=C(NCc1ccc(Br)cc1)C2=O	0.904 µM	2.3 µM	0.871 µM	2.26 µM	0.763 µM	2.37 µM	0.167 µM	1.95 µM	0.309 µM	1.5 µM	1.22 µM	3.35 µM	0.72 µM	2 µM	1.55 µM	4.13 µM	2.27 µM	5.88 µM	0.229 µM	0.907 µM
CC(=O)Nc1cc(C(c2ccccc2)c2ccccc2)cc(C(c2ccccc2)c2ccccc2)c1C	6.24 µM	> 100 µM	> 100 µM	> 100 µM	3.23 µM	> 100 µM	7.12 µM	> 100 µM	3.1 µM	> 100 µM	8.2 µM	> 100 µM	> 100 µM	> 100 µM	5.18 µM	> 100 µM	–	–	8.72 µM	> 100 µM
Cc1ccc2c(n1)C(=O)C(Cl)=C(Nc1ccc(N3CCN(C)CC3)cc1)C2=O	12.8 µM	25.6 µM	1.76 µM	3.25 µM	1.73 µM	3.12 µM	1.84 µM	3.93 µM	2.22 µM	4.89 µM	1.89 µM	4.13 µM	1.74 µM	3.22 µM	1.87 µM	3.56 µM	1.95 µM	3.42 µM	1.7 µM	3.11 µM
c1cc2ccc3cc2cc1CNCCOCCNCc1ccc2ccc(cc2c1)CNCCOCCNC3	> 100 µM	> 100 µM	> 100 µM	> 100 µM	> 100 µM	> 100 µM	> 100 µM	> 100 µM	> 100 µM	> 100 µM	> 100 µM	> 100 µM	> 100 µM	> 100 µM	> 100 µM	> 100 µM	> 100 µM	> 100 µM	> 100 µM	> 100 µM
O=S1CCN(Cc2ccc(-c3ccc4ncnc(Nc5ccc(OCc6ccccc6)c(F)c5)c4c3)o2)CC1	3.68 µM	21.6 µM	4.56 µM	> 25 µM	0.212 µM	> 25 µM	8.13 µM	> 25 µM	8.32 µM	18.6 µM	17.8 µM	> 25 µM	5.84 µM	15.1 µM	5.46 µM	12.2 µM	0.232 µM	> 25 µM	6.66 µM	> 25 µM
O=C(O)CC1C(=O)OC2C3COC(=O)c4cc(O)c(O)c(O)c4-c4c(cc(O)c(O)c4O)C(=O)OC2C(OC(=O)c2cc(O)c(O)c4c2C1C(O)C(=O)O4)C(OC(=O)c1cc(O)c(O)c(O)c1)O3 (configuration not stated)	–	> 100 µM	–	> 100 µM	–	66.8 µM	–	> 100 µM	–	30.4 µM	–	> 100 µM	–	> 100 µM	–	> 100 µM	–	> 100 µM	–	> 100 µM
O=C(NCCSSCCNC(=O)/C(Cc1ccc(O)c(Br)c1)=N/O)/C(Cc1ccc(O)c(Br)c1)=N/O	–	14.7 µM	–	12.7 µM	–	> 24 µM	–	14.4 µM	–	> 22.6 µM	–	9.75 µM	–	8.84 µM	–	3.26 µM	–	> 22.4 µM	–	> 34.6 µM
Nc1nc2c(c(=O)[nH]1)N=C(COP(=O)(O)OP(=O)(O)O)CN2	–	> 100 µM	–	> 100 µM	–	> 100 µM	–	> 100 µM	–	> 100 µM	–	> 100 µM	–	> 100 µM	–	> 100 µM	–	> 100 µM	–	> 100 µM
CCOC(=O)C1=C(C)NC(C)=C(C(=O)OCC)C1c1cc(Br)c(O)c(OC)c1	2.19 µM	7.13 µM	3.88 µM	13.1 µM	7.65 µM	34.4 µM	3.65 µM	14.2 µM	2.35 µM	6.35 µM	5.36 µM	22.4 µM	2.64 µM	7.07 µM	5.29 µM	20.1 µM	9.54 µM	39.2 µM	12.6 µM	31.4 µM
CC[C@@]1(OC(=O)C(N)CCC(=O)O)C(=O)OCc2c1cc1n(c2=O)Cc2cc3ccccc3nc2-1 (some centres not stated)	–	0.965 µM	–	0.0504 µM	–	> 57.8 µM	–	> 100 µM	–	0.508 µM	–	14.7 µM	–	0.0754 µM	–	3.44 µM	–	> 100 µM	–	1.63 µM
COc1ccc(C2=NNC(c3cc(Cc4ccc(O)c(C5CC(c6ccc(OC)cc6)=NN5)c4)ccc3O)C2)cc1 (configuration not stated)	71.9 µM	> 100 µM	29.8 µM	> 100 µM	23.3 µM	> 100 µM	3.64 µM	> 100 µM	23.4 µM	> 100 µM	17.9 µM	> 100 µM	22.4 µM	> 100 µM	5.9 µM	29 µM	19.6 µM	> 100 µM	25.6 µM	> 100 µM
O=C1NC(=O)C(N2CCc3ccccc32)=C1c1ccc(Cl)cc1	> 22.4 µM	> 25 µM	> 25 µM	> 25 µM	> 24.1 µM	> 25 µM	> 25 µM	> 25 µM	24.3 µM	> 25 µM	> 25 µM	> 25 µM	> 25 µM	> 25 µM	> 25 µM	> 25 µM	> 25 µM	> 25 µM	> 25 µM	> 25 µM
O=C1c2cccc3cccc(c23)C(=O)N1CC#Cc1ccc2c3c(cccc13)C(=O)N(CCN1CCNCC1)C2=O	15.4 µM	31.1 µM	2.06 µM	4.12 µM	15.7 µM	39.7 µM	14.9 µM	> 100 µM	4.12 µM	> 100 µM	13.5 µM	35.5 µM	1.82 µM	3.39 µM	18.5 µM	42 µM	2.61 µM	7.54 µM	18.5 µM	38.1 µM
O=c1c(-c2ccc3c(c2)OCO3)coc2c(CO)c(O)ccc12	1.76 µM	3.95 µM	2.41 µM	7.06 µM	2.79 µM	8.81 µM	2.35 µM	6.46 µM	2.25 µM	5.9 µM	1.96 µM	4.41 µM	2.28 µM	6.46 µM	2.25 µM	5.87 µM	2.28 µM	6.78 µM	2.59 µM	7.46 µM
Oc1[nH]c2ccc(Cl)cc2c1/C=c1/ccc2c(c1)N=C(c1ccc(C(F)(F)F)cc1)N=2	1.32 µM	4.17 µM	3.12 µM	10.4 µM	3.16 µM	18.3 µM	2.64 µM	8.91 µM	2.61 µM	5.55 µM	2.72 µM	7.64 µM	2.51 µM	6.65 µM	1.97 µM	3.79 µM	3.62 µM	9.75 µM	2.08 µM	4.93 µM
CCN1CCN(CC(=O)Nc2nc3ccc(NCc4ccc(C)cc4)cc3s2)CC1	5.27 µM	11.3 µM	7.97 µM	16.4 µM	5.67 µM	13.8 µM	1.04 µM	2.47 µM	1.05 µM	2.25 µM	5.76 µM	16.5 µM	1.5 µM	4.3 µM	5.53 µM	12.8 µM	7.54 µM	15.1 µM	3.33 µM	11.3 µM
CCc1ccc(Oc2nccc(-c3c(-c4ccc(F)cc4)ncn3C3CCNCC3)n2)cc1	3.55 µM	9.82 µM	5.83 µM	14 µM	7.2 µM	14.2 µM	6.35 µM	15.8 µM	5.78 µM	11.5 µM	6.76 µM	15.4 µM	4.79 µM	9.57 µM	5.24 µM	9.48 µM	4.24 µM	7.93 µM	4.34 µM	8.04 µM
Cc1cc(N2CCN(C)CC2)nc(N(CCNc2ccnc3cc(Cl)ccc23)Cc2ccco2)n1	4.79 µM	17.3 µM	5.94 µM	19 µM	5.58 µM	19.7 µM	2.69 µM	10.9 µM	2.25 µM	5.97 µM	5.82 µM	20.3 µM	1.68 µM	3.25 µM	2.26 µM	5.58 µM	2.8 µM	11.4 µM	2.07 µM	4.25 µM
CC1(C)CC(=O)C(CC2C(=O)c3ccccc3C2=O)C(=O)C1C(=O)C(=O)Nc1cccc2ccc(O)cc12 (configuration not stated)	–	69.8 µM	–	> 100 µM	–	> 100 µM	–	> 100 µM	–	> 100 µM	–	> 100 µM	–	> 100 µM	–	> 100 µM	–	> 100 µM	–	> 100 µM
Nc1ncnc2c1nc(N)n2C1OC(CO)C(O)C1O (configuration not stated)	0.657 µM	1.94 µM	0.401 µM	2.09 µM	0.231 µM	1.27 µM	0.433 µM	10.7 µM	0.376 µM	3.67 µM	0.93 µM	2.81 µM	1.88 µM	3.98 µM	0.72 µM	2.92 µM	0.458 µM	–	0.229 µM	0.857 µM
COc1cc(-c2ccc(Nc3ccccc3C(=O)O)c(OC)c2)ccc1Nc1ccccc1C(=O)O	–	> 96.5 µM	–	49.9 µM	–	> 97.4 µM	–	51.6 µM	–	65.8 µM	–	> 100 µM	–	45 µM	–	58.6 µM	–	> 89 µM	–	> 100 µM
CS(=O)/C(C#N)=C\C=C\c1cccc(Cl)c1 (configuration not stated)	12.4 µM	25 µM	1.45 µM	3.32 µM	3.66 µM	16.7 µM	1.11 µM	4.04 µM	2.38 µM	7.61 µM	2.46 µM	14.5 µM	1.79 µM	7.5 µM	4.44 µM	19.1 µM	5.59 µM	17.5 µM	2.41 µM	12.2 µM
CCOC(=O)c1c(C(F)(F)F)n([O-])c2ccc(Cl)cc2[n+]1=O	1.73 µM	3.93 µM	1.93 µM	3.5 µM	2.05 µM	5.14 µM	1.52 µM	3.16 µM	1.93 µM	4.07 µM	2.02 µM	3.95 µM	1.74 µM	3.21 µM	1.94 µM	4.34 µM	1.6 µM	3.23 µM	2.19 µM	4.7 µM
N#Cc1ccc(N2Cc3cc(Cl)ccc3OC3=C2C(=O)N(Cc2ccc(F)cc2)C3=O)cc1	3.26 µM	15.3 µM	0.662 µM	1.45 µM	1.08 µM	4.24 µM	0.543 µM	1.43 µM	0.23 µM	0.469 µM	0.658 µM	1.66 µM	0.557 µM	1.07 µM	0.314 µM	0.867 µM	0.567 µM	1.1 µM	0.556 µM	1.15 µM
O=C1c2ccccc2C(=O)c2c(NCCNCCO)ccc(NCCNCCO)c21	0.193 µM and 1.37 µM and 0.565 µM	1.11 µM and 7 µM and 3.61 µM	0.718 µM and 1.41 µM and 1.29 µM	4.89 µM and 8.28 µM and 8.69 µM	1.97 µM and 3.65 µM	10.4 µM and 26.3 µM	10.1 µM and 14.8 µM and 11.2 µM	> 100 µM	0.274 µM and 0.13 µM and 0.456 µM	8.67 µM and 10.6 µM	0.276 µM and 0.257 µM and 0.36 µM	2.61 µM and 3.34 µM and 3.76 µM	0.864 µM and 1.04 µM and 0.947 µM	3.42 µM and 6.7 µM and 4.07 µM	2.22 µM and 2.7 µM and 2.09 µM	5.79 µM and 16.7 µM and 3.77 µM	2.89 µM and 2.55 µM and 1.33 µM	24.6 µM and 22.5 µM and 8.88 µM	4.72 µM and 6.86 µM and 6.63 µM	14.2 µM and 27.9 µM and 24.7 µM
CC(=O)NC1CCCN(O)C(=O)/C=C(/C)CCOC(=O)C(NC(C)=O)CCCN(O)C(=O)/C=C(/C)CCOC(=O)C(NC(C)=O)CCCN(O)C(=O)/C=C(/C)CCOC1=O.[Fe] (configuration not stated)	> 100 µM	> 100 µM	> 100 µM	> 100 µM	> 100 µM	> 100 µM	> 100 µM	> 100 µM	> 100 µM	> 100 µM	> 100 µM	> 100 µM	> 100 µM	> 100 µM	> 100 µM	> 100 µM	> 100 µM	> 100 µM	> 100 µM	> 100 µM
